{"source": "paper PMC7024211", "about": "“Antifouling Napyradiomycins from Marine-Derived Actinomycetes Streptomyces aculeolatus” (Marine Drugs, 2020)", "key": {"M. edulis": {"system": "M. edulis", "parameters": "method as in doi:10.1016/S0044-8486(97)00209-3", "conditions": "against M. edulis ref 62; cited from earlier work"}, "P. inhibens [1]": {"system": "P. inhibens", "assay": "Biofilm inhibition assay (crystal violet)", "format": "cell-based, Phaeobacter inhibens", "procedure": "(§1) In a 96-well plate, biofilm grown cultures of M. hydrocarbonoclasticus and C. marina were incubated with napyradiomycins (1–12) at a concentration of 31.25 µg/mL. After discarding the media, biofilm inhibition was determined from OD600 measurements of crystal violet stained cells resuspended from the plate bottom with acetic acid.\n(§2) Five marine bacterial species were used as models to assess antimicrofouling activity. The biofilm-forming marine bacteria Marinobacter hydrocarbonoclasticus DSM 8798 (ATCC 49840), Cobetia marina DSM 4741, Phaeobacter inhibens DSM 17,395, and Pseusooceanicola batsensis DSM 15,984 were obtained from DSMZ (Leibniz Institute DSMZ—German collection of Microorganisms and Cell Cultures) and Micrococcus luteus. Cultures were routinely grown in liquid marine broth (Carl Roth GmbH, Karlsruhe, Germany) with agitation (180 rpm) or on agar-supplemented marine broth, at 28 °C (M. hydrocarbonoclasticus and C. marina) or 30 °C (P. inhibens and P. batsensis). M. luteus was maintained in Brain Heart Infusion broth (BHI, Becton Dickinson, GmbH, Heidelberg, Germany) with agitation (180 rpm) or on agar-supplemented BHI, at 37 °C.\n(§3) The antibiofilm activity of napyradiomycins (1–12) against the five marine bacterial species was assessed in 96-well polystyrene flat bottom microplates (Nunclon Delta Surface, Thermo Scientific, Roskilde, Denmark) as previously reported. For initial screening, bacterial overnight cultures were diluted to an optical density (OD600nm) value of 0.2 and incubated statically at 28 °C (M. hydrocarbonoclasticus, C. marina), 30 °C (P. inhibens, P. batsensis) or 37 °C (M. luteus) in the 96-well microplate in the presence or absence of 31.25 µg/mL of napyradiomycins, solubilized in DMSO. After 24 h (M. hydrocarbonoclasticus, C. marina) or 48 h (P. batsensis, P. inhibens, M. luteus) incubation, the OD600nm was determined. The planktonic cells and media were discarded, and the wells were washed twice with deionized water. The biofilm was fixed for 1 h at 60 °C and stained with crystal violet 0.06% for 10 min. The dye was discarded, and the wells were again washed twice with deionized water. The stained biofilm was solubilized with 30% acetic acid and the OD600nm was determined. […] The percentage of biofilm inhibition was calculated as the amount of biofilm relative to that of the bacterial species without added compounds (with the same amount of DMSO added). CuSO4 (5 μM), a potent antifouling agent used in antifouling paints, was used as reference.\nAll assays were performed in triplicate, and results are representative of the average and standard error of the mean (SEM). […]"}, "C. marina [2]": {"system": "C. marina", "assay": "Bacterial growth inhibition assay (OD600nm)", "format": "cell-based, Cobetia marina", "excerpt": "as §2\n(§4) The antibacterial activity of the napyradiomycins (1–12) was assessed in 96-well polystyrene flat bottom microplates (Nunclon Delta Surface, Thermo Scientific, Roskilde, Denmark) following previously reported procedures. […] After 24 h (M. hydrocarbonoclasticus, C. marina) or 48 h (P. batsensis, P. inhibens, M. luteus) incubation, the OD600nm was determined (Molecular Devices, Spectra Max 190). […] The percentage of growth inhibition was calculated as the amount of growth relative to that of the bacterial species without added compounds (with the same amount of DMSO added). CuSO4 (5 μM), a potent antifouling agent used in antifouling paints, was used as reference.\n(§5) All assays were performed in triplicate, and results are representative of the average and standard error of the mean (SEM). Statistical analysis was performed in GraphPad Prism 8.0.2 (San Diego, CA, USA), using one-way ANOVA followed by a Dunnett’s multiple comparisons test against the control (species grown with the same amount of DMSO added)."}, "M. luteus [3]": {"system": "M. luteus", "assay": "Biofilm inhibition assay (crystal violet)", "format": "cell-based, Micrococcus luteus", "procedure": "as §1, §2, §3\n(§6) All assays were performed in triplicate, and results are representative of the average and standard error of the mean (SEM). Statistical analysis was performed in GraphPad Prism 8.0.2, using one-way ANOVA followed by a Dunnett’s multiple comparisons test against the control (species grown with the same amount of DMSO added)."}, "M. hydrocarbonoclasticus [4]": {"system": "M. hydrocarbonoclasticus", "assay": "Bacterial growth inhibition assay (OD600nm)", "format": "cell-based, Marinobacter hydrocarbonoclasticus", "procedure": "(§7) As a first screening approach, liquid cultures of M. hydrocarbonoclasticus, and C. marina in a 96-well format were analyzed for bacterial growth inhibition by percent decrease in OD600 after incubation with napyradiomycins (1–12) at 31.25 µg/mL.\nas §2\n(§8) The antibacterial activity of the napyradiomycins (1–12) was assessed in 96-well polystyrene flat bottom microplates (Nunclon Delta Surface, Thermo Scientific, Roskilde, Denmark) following previously reported procedures. For initial screening, bacterial overnight cultures were diluted to an optical density (OD600nm) of 0.2 and incubated statically at 28 °C (M. hydrocarbonoclasticus, C. marina), 30 °C (P. inhibens, P. batsensis) or 37 °C (M. luteus) in a 96-well microplate in the presence or absence of 31.25 µg/mL of the napyradiomycins, solubilized in DMSO. After 24 h (M. hydrocarbonoclasticus, C. marina) or 48 h (P. batsensis, P. inhibens, M. luteus) incubation, the OD600nm was determined (Molecular Devices, Spectra Max 190). […] The percentage of growth inhibition was calculated as the amount of growth relative to that of the bacterial species without added compounds (with the same amount of DMSO added). CuSO4 (5 μM), a potent antifouling agent used in antifouling paints, was used as reference.\nas §5"}, "C. marina [5]": {"system": "C. marina", "assay": "Biofilm inhibition assay (crystal violet)", "format": "cell-based, Cobetia marina", "procedure": "as §1, §2, §3, §6"}, "P. batsensis [6]": {"system": "P. batsensis", "assay": "Biofilm inhibition assay (crystal violet)", "format": "cell-based, Pseudooceanicola batsensis", "procedure": "as §1, §2, §3, §6"}, "M. hydrocarbonoclasticus [7]": {"system": "M. hydrocarbonoclasticus", "assay": "Biofilm inhibition assay (crystal violet)", "format": "cell-based, Marinobacter hydrocarbonoclasticus", "procedure": "as §1, §2, §3, §6"}, "P. batsensis [8]": {"system": "P. batsensis", "assay": "Bacterial growth inhibition assay (OD600nm)", "format": "cell-based, Pseudooceanicola batsensis", "procedure": "as §7, §2, §8, §5"}, "P. inhibens [9]": {"system": "P. inhibens", "assay": "Bacterial growth inhibition assay (OD600nm)", "format": "cell-based, Phaeobacter inhibens", "procedure": "as §7\nFive marine bacterial species were used as models to assess antimicrofouling activity. The biofilm-forming marine bacteria Marinobacter hydrocarbonoclasticus DSM 8798 (ATCC 49840), Cobetia marina DSM 4741, Phaeobacter inhibens DSM 17,395, and Pseusooceanicola batsensis DSM 15,984 were obtained from DSMZ (Leibniz Institute DSMZ—German collection of Microorganisms and Cell Cultures) and Micrococcus luteus. […]\nThe antibacterial activity of the napyradiomycins (1–12) was assessed in 96-well polystyrene flat bottom microplates (Nunclon Delta Surface, Thermo Scientific, Roskilde, Denmark) following previously reported procedures. […] After 24 h (M. hydrocarbonoclasticus, C. marina) or 48 h (P. batsensis, P. inhibens, M. luteus) incubation, the OD600nm was determined (Molecular Devices, Spectra Max 190). […] The percentage of growth inhibition was calculated as the amount of growth relative to that of the bacterial species without added compounds (with the same amount of DMSO added). […]"}, "M. luteus [10]": {"system": "M. luteus", "assay": "Bacterial growth inhibition assay (OD600nm)", "format": "cell-based, Micrococcus luteus", "excerpt": "as §2, §4, §5"}, "[11]": {"assay": "Mussel plantigrade larvae settlement, 15 h acute exposure assay", "format": "in vivo", "conditions": "Mytilus galloprovincialis (mussel, plantigrade larvae), in vivo, no mortality at highest tested concentration 12 µg/mL", "procedure": "(§9) Mussel (M. galloprovincialis) adhesive larvae (plantigrades) were used to assess in vivo the antifouling activity of napyradiomycins (1–12) towards macrofouling. Juvenile mussel aggregates were collected at the intertidal rocky shore during low spring tides, at Memória beach, Matosinhos, Portugal (41°13′59″ N; 8°43′28″ W). At the laboratory, immediately before the bioassays, mussel plantigrade larvae were screened and isolated from the juvenile aggregates using a binocular microscope (Olympus SZX2-ILLT, Hamburg, Germany) and washed with filtered seawater to remove organic debris. Only competent plantigrade larvae (those showing foot exploratory behavior) were selected and used in the exposure bioassays following previously validated procedures. Plantigrades were exposed in 24-well polystyrene plates for 15 h in the darkness at 18 °C. DMSO was used as solvent for crude extracts, fractions and pure compounds stock and working solutions. Working solutions were prepared by successive dilutions of stock solutions in DMSO and then diluted in filtered seawater to obtain the test solutions. DMSO concentration in test solutions was always 0.1%. Four well replicates were used per condition with five larvae per well. Two negative controls, one with ultra-pure water and the other with DMSO 0.1% were included in all bioassays, as well as a positive control with 5 μM CuSO4 (a potent antifouling agent). Anti-settlement bioactivity was determined by the presence/absence of fixed byssal threads produced by each individual larvae for all the conditions tested. […] Chi-square Pearsons goodness-of-fit test was applied to data in order to determine EC50. Significance was considered at p < 0.01 for all analyses, and 95% lower and upper confidence limits [95% LCL; UCL] were presented. Therapeutic ratio (LC50/EC50) was used to evaluate the effectiveness vs. toxicity of compounds [19, 21]."}, "[12]": {"system": "M. galloprovincialis plantigrade larvae", "assay": "Mussel plantigrade larvae settlement, 15 h acute exposure assay", "format": "in vivo", "conditions": "Mytilus galloprovincialis, 15 h, 95% LCL, UCL in brackets, read-out: EC50 [Conf. limits] larval settlement", "procedure": "as §9"}}, "data": [{"molecule": "ivermectin", "values": [{"measurement": "EC50", "setting": "M. edulis", "result": 0.4, "unit": "µg/mL"}]}, {"molecule": "O=S(=O)([O-])[O-].[Cu+2]", "note": "[CuSO4, reference compound]", "values": [{"measurement": "% biofilm inhibition P. inhibens", "setting": "P. inhibens [1]; CuSO4 5 μM reference", "result": "12.9 ± 6.4", "unit": "%"}, {"measurement": "growth inhibition C. marina", "setting": "C. marina [2]; CuSO4 5 μM reference", "result": "not inhibited"}, {"measurement": "biofilm inhibition M. luteus", "setting": "M. luteus [3]; CuSO4 5 μM reference", "result": "not inhibited"}, {"measurement": "% growth inhibition M. hydrocarbonoclasticus", "setting": "M. hydrocarbonoclasticus [4]; CuSO4 5 μM reference", "result": "35.8 ± 0.8", "unit": "%"}, {"measurement": "biofilm inhibition C. marina", "setting": "C. marina [5]; CuSO4 5 μM reference", "result": "not inhibited"}, {"measurement": "% biofilm inhibition P. batsensis", "setting": "P. batsensis [6]; CuSO4 5 μM reference", "result": "41.4 ± 0.9", "unit": "%"}, {"measurement": "biofilm inhibition M. hydrocarbonoclasticus", "setting": "M. hydrocarbonoclasticus [7]; CuSO4 5 μM reference", "result": "not inhibited"}, {"measurement": "% growth inhibition P. batsensis", "setting": "P. batsensis [8]; CuSO4 5 μM reference", "result": "44.8 ± 6.3", "unit": "%"}, {"measurement": "% growth inhibition P. inhibens", "setting": "P. inhibens [9]; CuSO4 5 μM reference", "result": "66.2 ± 5.6", "unit": "%"}, {"measurement": "growth inhibition M. luteus", "setting": "M. luteus [10]; CuSO4 5 μM reference", "result": "not inhibited"}]}, {"molecule": "CC(=CCCC(C)=CCC12OC(C)(C)C(Cl)CC1(Cl)C(=O)c1c(O)cc(O)cc1C2=O)CO", "note": "(centres unmarked) [Napyradiomycin 2, 18-hydroxynapyradiomycin A1]", "values": [{"measurement": "% Biofilm Inhibition ± SEM P. inhibens", "setting": "P. inhibens [1]; 31.25 µg/mL", "result": "N.I."}, {"measurement": "% growth inhibition C. marina", "setting": "C. marina [2]; 31.25 µg/mL", "result": "did not inhibit growth"}, {"measurement": "LC50 at 15 h", "setting": "[11]", "result": "> 12", "unit": "µg/mL"}, {"measurement": "EC50", "setting": "[12]", "result": 2, "unit": "µg/mL"}, {"measurement": "% Biofilm Inhibition ± SEM M. luteus", "setting": "M. luteus [3]; 31.25 µg/mL", "result": "N.I."}, {"measurement": "% growth inhibition M. hydrocarbonoclasticus", "setting": "M. hydrocarbonoclasticus [4]; 31.25 µg/mL", "result": "did not inhibit growth"}, {"measurement": "% Biofilm Inhibition ± SEM C. marina", "setting": "C. marina [5]; 31.25 µg/mL", "result": "N.I."}, {"measurement": "% Biofilm Inhibition ± SEM P. batsensis", "setting": "P. batsensis [6]; 31.25 µg/mL", "result": "N.I."}, {"measurement": "inhibition at 0.98 µg/mL", "setting": "M. hydrocarbonoclasticus [7]; Marinobacter nauticus, 0.98 µg/mL, read-out: % inhibition of biofilm formation M. hydro.", "result": "24.6 ± 9.8", "unit": "%"}, {"measurement": "inhibition at 1.95 µg/mL", "setting": "M. hydrocarbonoclasticus [7]; Marinobacter nauticus, 1.95 µg/mL, read-out: % inhibition of biofilm formation M. hydro.", "result": "56.5 ± 5.7", "unit": "%"}, {"measurement": "inhibition at 15.6 µg/mL", "setting": "M. hydrocarbonoclasticus [7]; Marinobacter nauticus, 15.6 µg/mL, read-out: % inhibition of biofilm formation M. hydro.", "result": "56.6 ± 0.9", "unit": "%"}, {"measurement": "inhibition at 31.25 µg/mL", "setting": "M. hydrocarbonoclasticus [7]; Marinobacter nauticus, 31.25 µg/mL, read-out: % Biofilm Inhibition ± SEM M. hydrocarbonoclasticus", "result": "60.2 ± 5.7", "unit": "%"}, {"measurement": "% growth inhibition P. batsensis", "setting": "P. batsensis [8]; 31.25 µg/mL", "result": "did not inhibit growth"}, {"measurement": "% growth inhibition P. inhibens", "setting": "P. inhibens [9]; 31.25 µg/mL", "result": "did not inhibit growth"}, {"measurement": "% growth inhibition M. luteus", "setting": "M. luteus [10]; 31.25 µg/mL", "result": "did not inhibit growth"}]}]}
